Inconclusive results and toxic doses are left out. No stated cut-off is given here; in the data, active means T/C of 150% or more; inactive means T/C below 125%. Peptide text beside a SMILES is read from it.
Tested on: L1210 leukemia ip in BDF1 mice, survival T/C
Assay: NCI In Vivo Anticancer Drug Screen. Data for tumor model L1210 Leukemia (intraperitoneal) in B6D2F1 (BDF1) mice
Conditions: endpoint: mean survival time, higher = longer survival
Outline: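 Ratio derived from survival: compound-dosed mice over vehicle-dosed mice, all bearing a transplantable tumor.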

[1] = dose: 100.0 mg/kg/injection, schedule: Q01DX001 (ip), vehicle: carboxymethylcellulose (CMC)
[2] = dose: 200.0 mg/kg/injection, schedule: Q01DX001 (ip), vehicle: carboxymethylcellulose (CMC)
[3] = dose: 100.0 mg/kg/injection, schedule: Q01DX001 (ip), vehicle: saline
[4] = dose: 200.0 mg/kg/injection, schedule: Q01DX001 (ip), vehicle: saline
[5] = dose: 400.0 mg/kg/injection, schedule: Q01DX001 (ip), vehicle: saline
[6] = dose: 100.0 mg/kg/injection, schedule: Q04DX003 (ip), vehicle: saline with Tween-80
[7] = dose: 200.0 mg/kg/injection, schedule: Q04DX003 (ip), vehicle: saline with Tween-80
[8] = dose: 400.0 mg/kg/injection, schedule: Q04DX003 (ip), vehicle: saline with Tween-80
[9] = dose: 100.0 mg/kg/injection, schedule: Q01DX009 (ip), vehicle: saline
[10] = dose: 100.0 mg/kg/injection, schedule: Q04DX003 (ip), vehicle: saline
[11] = dose: 200.0 mg/kg/injection, schedule: Q01DX009 (ip), vehicle: saline
[12] = dose: 200.0 mg/kg/injection, schedule: Q04DX003 (ip), vehicle: saline
[13] = dose: 400.0 mg/kg/injection, schedule: Q04DX003 (ip), vehicle: saline
[14] = dose: 100.0 mg/kg/injection, schedule: Q04DX002 (ip), vehicle: saline
[15] = dose: 100.0 mg/kg/injection, schedule: Q01DX009 (ip), vehicle: saline with Tween-80
[16] = dose: 200.0 mg/kg/injection, schedule: Q01DX009 (ip), vehicle: saline with Tween-80
[17] = dose: 400.0 mg/kg/injection, schedule: Q01DX009 (ip), vehicle: saline with Tween-80
[18] = dose: 75.0 mg/kg/injection, schedule: Q01DX001 (ip), vehicle: saline
[19] = dose: 150.0 mg/kg/injection, schedule: Q01DX001 (ip), vehicle: saline
[20] = dose: 100.0 mg/kg/injection, schedule: Q01DX009 (ip), vehicle: Klucel (hydroxypropylcellulose) (HPC)
[21] = dose: 200.0 mg/kg/injection, schedule: Q01DX009 (ip), vehicle: Klucel (hydroxypropylcellulose) (HPC)
[22] = dose: 100.0 mg/kg/injection, schedule: Q01DX001 (ip), vehicle: Klucel (hydroxypropylcellulose) (HPC)
[23] = dose: 200.0 mg/kg/injection, schedule: Q01DX001 (ip), vehicle: Klucel (hydroxypropylcellulose) (HPC)
[24] = dose: 400.0 mg/kg/injection, schedule: Q01DX001 (ip), vehicle: Klucel (hydroxypropylcellulose) (HPC)
[25] = dose: 50.0 mg/kg/injection, schedule: Q01DX009 (ip), vehicle: saline with Tween-80

Measured: T/C

CC1(/C=N/Nc2nnc(N/N=C/C3(C)CCC=CO3)c3ccccc23)CCC=CO1 (configuration not stated)
inactive: dose: 50.0 mg/kg/injection, schedule: Q01DX001 (ip), vehicle: carboxymethylcellulose (CMC) 106 % of control | [1] 104 % of control | [2] 87 % of control

O=C1c2ccccc2C(=O)c2c(Nc3ccccc3)ccc(NCCO)c21
inactive: [3] 102 % of control | [4] 100 % of control | [5] 97 % of control

CCCCCCCCCCCCCCCCC(C(=O)OCC)C(=O)c1ccccc1 (configuration not stated)
inactive: [6] 95 % of control | [7] 95 % of control | [8] 91 % of control

O=C(O)CC(O)C(F)(F)C(F)(F)C(F)(F)F (configuration not stated)
inactive: [9] 90 % of control | [10] 100 % of control | [11] 86 % of control | [12] 97 % of control | [13] 87 % of control

OC1(c2cccc(C(F)(F)F)c2)CCN(C2CC2)CC1
inactive: dose: 12.5 mg/kg/injection, schedule: Q04DX003 (ip), vehicle: Klucel (hydroxypropylcellulose) (HPC) 104 % of control | dose: 25.0 mg/kg/injection, schedule: Q04DX003 (ip), vehicle: Klucel (hydroxypropylcellulose) (HPC) 105 % of control | dose: 50.0 mg/kg/injection, schedule: Q04DX003 (ip), vehicle: Klucel (hydroxypropylcellulose) (HPC) 100 % of control

C1CC[C@@H]2NCCC[C@H]2C1
inactive: [1] 103 % of control | [2] 92 % of control

N#Cc1nccnc1Cl
inactive: dose: 12.5 mg/kg/injection, schedule: Q04DX003 (ip), vehicle: saline with Tween-80 96 % of control | dose: 25.0 mg/kg/injection, schedule: Q01DX009 (ip), vehicle: other 95 % of control | dose: 25.0 mg/kg/injection, schedule: Q04DX003 (ip), vehicle: saline with Tween-80 99 % of control | dose: 50.0 mg/kg/injection, schedule: Q01DX009 (ip), vehicle: other 93 % of control | dose: 50.0 mg/kg/injection, schedule: Q04DX003 (ip), vehicle: saline with Tween-80 86 % of control | dose: 100.0 mg/kg/injection, schedule: Q01DX009 (ip), vehicle: other 109 % of control

NC(N)=NCCCC(N)C(=O)NC(CCC(=O)O)C(=O)O (stereo not drawn) (H-Arg-Glu-OH; configuration not given here)
inactive: dose: 25.0 mg/kg/injection, schedule: Q04DX002 (ip), vehicle: saline 98 % of control | dose: 50.0 mg/kg/injection, schedule: Q04DX002 (ip), vehicle: saline 121 % of control | [14] 110 % of control

Cc1cc(-c2nnc(-c3ccc(O)c(C)c3)nn2)ccc1O
inactive: [15] 94 % of control | [16] 94 % of control | [17] 91 % of control

CN(CCC(C#N)(CCC#N)c1ccccc1)Cc1ccccc1 (configuration not stated)
inactive: [18] 102 % of control | [19] 102 % of control

CC(F)C1CCCC(F)C1 (configuration not stated)
inactive: [3] 103 % of control | [4] 100 % of control | [5] 105 % of control

N#CCCN(CCC#N)C(=O)Nc1cccc(Cl)c1
inactive: [6] 98 % of control | [7] 88 % of control | [8] 91 % of control

C[n+]1cc(-c2ccccc2)cc2ccccc21
inactive: [18] 97 % of control

CCCCCC(/C=N/NC(=O)c1cccc2ccccc12)=C\c1ccccc1
inactive: [3] 94 % of control | [5] 97 % of control

Cc1cccc(C)c1NC(=O)c1ccccc1Cl
inactive: [15] 104 % of control | [16] 97 % of control | [17] 104 % of control

Cc1ccc(NC(=S)Nc2ccccc2)c(C)c1
inactive: dose: 100.0 mg/kg/injection, schedule: Q01DX001 (ip), vehicle: other 89 % of control | [20] 102 % of control | dose: 100.0 mg/kg/injection, schedule: Q04DX002 (ip), vehicle: Klucel (hydroxypropylcellulose) (HPC) 87 % of control | dose: 200.0 mg/kg/injection, schedule: Q01DX001 (ip), vehicle: other 94 % of control | [21] 97 % of control | dose: 200.0 mg/kg/injection, schedule: Q04DX002 (ip), vehicle: Klucel (hydroxypropylcellulose) (HPC) 90 % of control | dose: 400.0 mg/kg/injection, schedule: Q01DX001 (ip), vehicle: other 97 % of control | dose: 400.0 mg/kg/injection, schedule: Q01DX009 (ip), vehicle: Klucel (hydroxypropylcellulose) (HPC) 94 % of control | dose: 400.0 mg/kg/injection, schedule: Q04DX002 (ip), vehicle: Klucel (hydroxypropylcellulose) (HPC) 106 % of control

Clc1ccc(SCC#CCOc2ccc(Cl)cc2Cl)cc1
inactive: [22] 89 % of control | [23] 95 % of control | [24] 97 % of control

O=C1c2ccccc2C2C(=O)c3ccccc3C12 (configuration not stated)
inactive: [6] 98 % of control | [7] 96 % of control | [8] 95 % of control

Clc1ccc(NP(Br)(c2ccccc2)(c2ccccc2)c2ccccc2)cc1
inactive: dose: 75.0 mg/kg/injection, schedule: Q01DX001 (ip), vehicle: other 107 % of control | dose: 150.0 mg/kg/injection, schedule: Q01DX001 (ip), vehicle: other 104 % of control | dose: 300.0 mg/kg/injection, schedule: Q01DX001 (ip), vehicle: other 101 % of control

CC(=O)OC1CC(C)(C)CC(OC(C)=O)C1(C)C (configuration not stated)
inactive: [18] 100 % of control | [19] 111 % of control

CC(=O)COCC1CO1 (configuration not stated)
inactive: [25] 92 % of control | [15] 92 % of control | [16] 100 % of control

O=C(Nc1cccc(C(F)(F)F)c1)N(Cc1ccccc1)Cc1ccccc1
inactive: dose: 100.0 mg/kg/injection, schedule: Q01DX009 (ip), vehicle: gum acacia 108 % of control | dose: 200.0 mg/kg/injection, schedule: Q01DX009 (ip), vehicle: gum acacia 106 % of control | dose: 400.0 mg/kg/injection, schedule: Q01DX009 (ip), vehicle: gum acacia 94 % of control

CCOC(=O)c1ccc(NCC(C)(C)N(C)C)cc1
inactive: dose: 12.0 mg/kg/injection, schedule: Q01DX009 (ip), vehicle: saline 93 % of control | dose: 12.0 mg/kg/injection, schedule: Q04DX003 (ip), vehicle: saline 93 % of control | dose: 25.0 mg/kg/injection, schedule: Q01DX009 (ip), vehicle: saline 89 % of control | dose: 25.0 mg/kg/injection, schedule: Q04DX003 (ip), vehicle: saline 98 % of control | dose: 50.0 mg/kg/injection, schedule: Q01DX009 (ip), vehicle: saline 90 % of control | dose: 50.0 mg/kg/injection, schedule: Q04DX003 (ip), vehicle: saline 95 % of control

S=C(Nc1cccc(Cl)c1)Nc1cccc(Cl)c1
inactive: [6] 94 % of control | [7] 97 % of control

O=C1c2cc(-c3ccccc3)c(-c3ccccc3)cc2C(c2ccccc2)(c2ccccc2)C1(Cl)Cl
inactive: [25] 100 % of control | [15] 100 % of control | [16] 95 % of control

Oc1c(Cl)cc(C(c2cc(Cl)c(O)c(Cl)c2)c2ccccn2)cc1Cl
inactive: dose: 100.0 mg/kg/injection, schedule: Q04DX003 (ip), vehicle: Klucel (hydroxypropylcellulose) (HPC) 100 % of control | dose: 200.0 mg/kg/injection, schedule: Q04DX003 (ip), vehicle: Klucel (hydroxypropylcellulose) (HPC) 104 % of control | dose: 400.0 mg/kg/injection, schedule: Q04DX003 (ip), vehicle: Klucel (hydroxypropylcellulose) (HPC) 93 % of control

CC1(C)C(=O)Nc2ccccc2N1C(=O)CN1CC2CCC(CC2)C1
inactive: [9] 94 % of control | [10] 93 % of control | [11] 92 % of control | [12] 95 % of control | [13] 98 % of control

BrCC1(c2ccccc2)OCCO1
inactive: [22] 100 % of control | [20] 89 % of control | [23] 92 % of control | [21] 89 % of control | [24] 98 % of control

CC(=O)c1ccccc1N1CCCCC1
inactive: [14] 100 % of control | dose: 200.0 mg/kg/injection, schedule: Q04DX002 (ip), vehicle: saline 89 % of control

— PubChem BioAssay AID248 (DTP/NCI, 2004)
